Experimental data taken from patent US10905739B2, “Peptidomimetic macrocycles and formulations thereof” (AILERON THERAPEUTICS, INC., priority 2014, dated 2021).
pEC50, pIC50: −log10 of the molar value. ≈ marks a conversion by molar mass, not a printed value. Like-named read-outs stand apart in the source and are kept apart here. Bridge positions count the residues as written; N and C are the ends. Square brackets hold non-standard residues; d marks the D form. Peptide text beside a SMILES is read from it. dPhe(4-CF3) = N[C@H](Cc1ccc(C(F)(F)F)cc1)C(=O)O; Phe(4-F) = N[C@@H](Cc1ccc(F)cc1)C(=O)O; R8 = C=CCCCCCC[C@@](C)(N)C(=O)O; S8 = C=CCCCCCC[C@](C)(N)C(=O)O; R5 = C=CCCC[C@@](C)(N)C(=O)O; hLeu = CC(C)CC[C@H](N)C(=O)O; S5 = C=CCCC[C@](C)(N)C(=O)O; Nle = CCCC[C@H](N)C(=O)O; Aib = CC(C)(N)C(=O)O

Legend:
MDM2 = MDM2 (Homo sapiens, UniProt Q00987); experiment: MDM2 binding IC50/Ki (in vitro displacement, fluorescence polarization)
SJSA-1 cells = experiment: SJSA-1 sarcoma cell killing / cell viability; assay type: cell-based; details: 10% serum
[1] = Aqueous solubility (turbidity of solution); assay type: physicochemical
Description: In some embodiments, the peptidomimetic macrocycle or pharmaceutically acceptable salt thereof is not precipitated in the formulation. In some embodiments, an aqueous solubility of the peptidomimetic macrocycle is determined by evaluating the turbidity of a solution comprising the peptidomimetic macrocycle. In some embodiments, the peptidomimetic macrocycle or pharmaceutically acceptable salt thereof has an amphipathicity that falls in a range that is optimal for cell permeability.
In some embodiments, a peptidomimetic macrocycle with enhanced cell penetrability can be prepared based on solubility of the polypeptide, for example if the prepared peptidomimetic macrocycle is determined to be soluble based on visual examination of the turbidity of a solution of the polypeptide.

[2] = tested on: Influenza A Virus H1N1 California/07/2009; details: Virus California/07/2009
MCL-1 = MCL-1 (Homo sapiens, UniProt Q07820); experiment: biochemical
Text: To assess the binding and affinity of compounds that antagonize the interaction between a peptide and an acceptor protein, a fluorescence polarization assay (FPA) utilizing a fluoresceinated peptidomimetic macrocycle derived from a peptidomimetic precursor sequence is used, for example. The FPA technique measures the molecular orientation and mobility using polarized light and fluorescent tracer. […] A compound that antagonizes the interaction between the fluoresceinated peptidomimetic macrocycle and an acceptor protein will be detected in a competitive binding FPA experiment.
Antagonist binding activity is measured, for example, by fluorescence polarization on a luminescence spectrophotometer (e.g. Perkin-Elmer LS50B). Kd values can be determined by nonlinear regression analysis using, for example, Graphpad Prism software (GraphPad Software, Inc., San Diego, Calif.).

BCL-XL = BCL-XL (Homo sapiens, UniProt Q07817); experiment: BCL-XL binding IC50
Text: In one aspect, the present invention provides novel peptidomimetic macrocycles that are useful in competitive binding assays to identify agents which bind to the natural ligand(s) of the proteins or peptides upon which the peptidomimetic macrocycles are modeled. For example, in the BH3/BCL-XL anti-apoptotic system labeled peptidomimetic macrocycles based on BH3 can be used in a BCL-XL binding assay along with small molecules that competitively bind to BCL-XL. Competitive binding studies allow for rapid in vitro evaluation and determination of drug candidates specific for the BH3/BCL-XL system. The invention further provides for the generation of antibodies against the peptidomimetic macrocycles. In some embodiments, these antibodies specifically bind both the peptidomimetic macrocycle and the BH3 peptidomimetic precursors upon which the peptidomimetic macrocycles are derived. Such antibodies, for example, disrupt the BH3/BCL-XL systems, respectively.

Raji Cell = details: read-out: Raji Cell Viability EC50; 5% serum, 48 hr
Description: The efficacy of certain peptidomimetic macrocycles is determined, for example, in cell-based killing assays using a variety of tumorigenic and non-tumorigenic cell lines and primary cells derived from human or mouse cell populations. […] Several standard assays that measure cell viability are commercially available and are optionally used to assess the efficacy of the peptidomimetic macrocycles. In addition, assays that measure Annexin V and caspase activation are optionally used to assess whether the peptidomimetic macrocycles kill cells by activating the apoptotic machinery. For example, the Cell Titer-glo assay is used which determines cell viability as a function of intracellular ATP concentration.

Sequence of BCL-XL (Q07817 whole entry): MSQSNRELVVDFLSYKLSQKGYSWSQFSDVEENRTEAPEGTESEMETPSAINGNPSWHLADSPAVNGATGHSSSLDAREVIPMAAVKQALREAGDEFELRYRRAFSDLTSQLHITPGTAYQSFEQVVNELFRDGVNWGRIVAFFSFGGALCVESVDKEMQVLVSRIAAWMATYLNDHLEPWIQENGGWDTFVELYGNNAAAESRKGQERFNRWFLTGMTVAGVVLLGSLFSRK
Sequence of MCL-1 (Q07820 whole entry): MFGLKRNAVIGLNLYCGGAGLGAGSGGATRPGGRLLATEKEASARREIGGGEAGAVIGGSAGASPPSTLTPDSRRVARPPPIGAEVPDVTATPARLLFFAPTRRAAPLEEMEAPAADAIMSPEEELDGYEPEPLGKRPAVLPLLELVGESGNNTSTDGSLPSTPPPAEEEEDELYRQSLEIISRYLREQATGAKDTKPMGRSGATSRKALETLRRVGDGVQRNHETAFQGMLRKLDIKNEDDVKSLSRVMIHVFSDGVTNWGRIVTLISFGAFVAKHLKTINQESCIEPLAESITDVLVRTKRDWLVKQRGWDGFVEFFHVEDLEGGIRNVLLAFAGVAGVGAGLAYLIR
Sequence of MDM2 (Q00987 whole entry): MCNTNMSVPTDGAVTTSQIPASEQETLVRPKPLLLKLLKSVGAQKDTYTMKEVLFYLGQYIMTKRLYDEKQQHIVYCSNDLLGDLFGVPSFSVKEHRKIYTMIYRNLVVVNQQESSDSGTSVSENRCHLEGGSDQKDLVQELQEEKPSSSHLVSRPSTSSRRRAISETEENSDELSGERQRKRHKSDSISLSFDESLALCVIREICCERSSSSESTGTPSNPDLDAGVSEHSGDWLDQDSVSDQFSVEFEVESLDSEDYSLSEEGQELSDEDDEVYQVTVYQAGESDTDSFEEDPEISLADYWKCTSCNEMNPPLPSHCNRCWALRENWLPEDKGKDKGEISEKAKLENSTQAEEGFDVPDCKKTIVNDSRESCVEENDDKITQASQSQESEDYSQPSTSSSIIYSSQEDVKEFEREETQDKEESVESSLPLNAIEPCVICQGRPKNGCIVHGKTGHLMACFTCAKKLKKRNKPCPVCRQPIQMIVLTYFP

CCCC[C@H](NC(=O)[C@H](C)NC(=O)[C@H](C)NC(=O)[C@]1(C)CCCC=CCCCCCC[C@@](C)(NC(=O)[C@H](Cc2ccccc2)NC(=O)[C@@H](NC(=O)[C@H](CC(C)C)NC(C)=O)[C@@H](C)O)C(=O)N[C@@H](C)C(=O)N[C@@H](Cc2ccc(O)cc2)C(=O)N[C@@H](Cc2c[nH]c3ccccc23)C(=O)N[C@@H](C)C(=O)N[C@@H](CCC(N)=O)C(=O)N[C@@H](CC(C)C)C(=O)N1)C(=O)N[C@@H](C)C(N)=O [SP68]
pIC50 (MDM2): 7.54 | pEC50 (SJSA-1 cells; 72 hr (Table 1d)): 5.95 | solubility ([1]; aqueous solution, read-out: Solubility): 3000 µg/mL (≈ 1690 µM)

CC(=O)N[C@@H](CC(C)C)C(=O)N[C@H](C(=O)N[C@@H](Cc1ccccc1)C(=O)NC1(C)CCCCCCC=CCCCC(C)(C(=O)N[C@@H](C)C(=O)N[C@@H](C)C(=O)N[C@@H](C)C(=O)N[C@@H](C)C(=O)N[C@@H](C)C(=O)N[C@@H](C)C(=O)N[C@H](C)C(N)=O)NC(=O)[C@H](CC(C)C)NC(=O)[C@H](CCC(N)=O)NC(=O)[C@H](C)NC(=O)[C@H](Cc2c[nH]c3ccccc23)NC(=O)[C@H](Cc2ccc(O)cc2)NC(=O)[C@H](C)NC1=O)[C@@H](C)O (stereo partly drawn) [SP317]
solubility ([1]; read-out: Solubility): 5000 µg/mL (≈ 2570 µM)

CC(=O)N[C@@H](CC(C)C)C(=O)N[C@H](C(=O)N[C@@H](Cc1ccccc1)C(=O)N[C@]1(C)CCCCCCC=CCCC[C@@](C)(C(=O)N[C@@H](C)C(N)=O)NC(=O)[C@H](CC(C)C)NC(=O)[C@H](CCC(N)=O)NC(=O)[C@H](C)NC(=O)[C@H](Cc2c[nH]c3ccccc23)NC(=O)[C@H](Cc2ccc(O)cc2)NC(=O)[C@H](C)NC1=O)[C@@H](C)O [SP590, Ac-LTF$r8AYWAQL$A-NH2] (Ac-LTF[R8]AYWAQL[S5]A-NH2; staple 4-11)
pEC50 (SJSA-1 cells; 72 hr (Table 1d)): 5.22 | solubility [1]: ≤ 1000 µg/mL

CC(=O)N[C@@H](C(=O)N[C@H](C)C(=O)N[C@H](Cc1c[nH]c2ccccc12)C(=O)N[C@H](Cc1ccc(O)cc1)C(=O)N[C@@]1(C)CCCCCCC=CCCC[C@](C)(C(=O)N[C@H](C)C(N)=O)NC(=O)[C@@H](CC(C)C)NC(=O)[C@@H](CC(C)C)NC(=O)[C@@H](CCCCN)NC(=O)[C@@H](CCC(=O)O)NC(=O)[C@@H](Cc2ccc(C(F)(F)F)cc2)NC(=O)[C@@H](CC(N)=O)NC1=O)[C@H](C)O [SP757, Ac-tawy$s8nf4CF3ekll$r5a-NH2] (Ac-[dT][dA][dW][dY][S8][dN][dPhe(4-CF3)][dE][dK][dL][dL][R5][dA]-NH2; staple 5-12)
pEC50 (SJSA-1 cells; 72 hr (Table 1f)): 5.82

CC(=O)N[C@@H](C(=O)N[C@H](C)C(=O)N[C@H](Cc1c[nH]c2ccccc12)C(=O)N[C@H](Cc1ccc(O)cc1)C(=O)N[C@H](C)C(=O)N[C@H](CC(N)=O)C(=O)N[C@H](Cc1ccccc1)C(=O)N[C@H](CCC(=O)O)C(=O)N[C@H](CCCCN)C(=O)N[C@H](CC(C)C)C(=O)N[C@H](CC(C)C)C(=O)N[C@H](CCCNC(=N)N)C(N)=O)[C@H](C)O [SP778, Ac-tawyanfekllr-NH2, reference compound] (Ac-[dT][dA][dW][dY][dA][dN][dF][dE][dK][dL][dL][dR]-NH2)
pEC50 (SJSA-1 cells; 72 hr (Table 1f)): < 4.52

CCCC[C@H](NC(C)=O)C(=O)N[C@@H](CC(=O)O)C(=O)N[C@H](C(=O)N[C@@H](CC(N)=O)C(=O)N[C@@]1(C)CCCC=CCCC[C@@](C)(C(=O)N[C@@H](CC(C)C)C(=O)N[C@@H](C)C(=O)N[C@H](C(=O)NC(C)(C)C(=O)N[C@@H](C)C(=O)N[C@@H](CCC(N)=O)C(N)=O)C(C)C)NC(=O)[C@H](CC(C)C)NC(=O)[C@H](CC(C)C)NC(=O)[C@H]([C@@H](C)O)NC1=O)C(C)C [SP786] (Ac-[Nle]DVN[S5]TLL[S5]LAV[Aib]AQ-NH2; staple 5-9; C-terminus assumed)
pEC50 [2]: 4.64

CCCC[C@H](NC(C)=O)C(=O)N[C@@H](CC(=O)O)C(=O)N[C@H](C(=O)N[C@@H](CC(N)=O)C(=O)N[C@]1(C)CCCCCCC=CCCC[C@@](C)(C(=O)N[C@@H](C)C(=O)N[C@@H](C)C(=O)N[C@@H](CCC(N)=O)C(N)=O)NC(=O)[C@H](C)NC(=O)[C@H](CC(C)C)NC(=O)[C@H](Cc2ccccc2)NC(=O)[C@H](CC(C)C)NC(=O)[C@H](CC(C)C)NC(=O)[C@H]([C@@H](C)O)NC1=O)C(C)C [SP798] (Ac-[Nle]DVN[R8]TLLFLA[S5]AAQ-NH2; staple 5-12)
pEC50 [2]: 5.35

CC[C@H](C)[C@H](NC(C)=O)C(=O)N[C@@H](Cc1c[nH]c2ccccc12)C(=O)N[C@H](C(=O)N[C@@H](C)C(=O)N[C@@H](CCC(N)=O)C(=O)N[C@@H](C)C(=O)N[C@@H](CC(C)C)C(=O)N[C@@H](CCCNC(=N)N)C(=O)N[C@]1(C)CCCCCCC=CCCC[C@@](C)(C(=O)N[C@@H](Cc2ccc(O)cc2)C(=O)N[C@@H](Cc2ccc(O)cc2)C(=O)N[C@@H](C)C(=O)N[C@@H](CCCNC(=N)N)C(=O)N[C@@H](CCCNC(=N)N)C(N)=O)NC(=O)[C@H](CC(N)=O)NC(=O)[C@H](Cc2ccccc2)NC(=O)[C@H](CCC(=O)O)NC(=O)[C@H](CC(=O)O)NC(=O)CNC(=O)[C@H]([C@@H](C)CC)NC1=O)[C@@H](C)CC [SP809] (Ac-IWIAQALR[R8]IGDEFN[S5]YYARR-NH2; staple 9-16)
pIC50 (MCL-1): 7.97 | pIC50 (BCL-XL): 8.41 | pEC50 (Raji Cell): < 4.52

CC[C@H](C)[C@H](NC(C)=O)C(=O)N[C@@H](Cc1c[nH]c2ccccc12)C(=O)N[C@H](C(=O)N[C@@H](C)C(=O)N[C@@H](CCC(N)=O)C(=O)N[C@@H](CCC(=O)O)C(=O)N[C@@H](CC(C)C)C(=O)N[C@@H](CCCNC(=N)N)C(=O)N[C@]1(C)CCCCCCC=CCCC[C@@](C)(C(=O)N[C@@H](Cc2ccc(O)cc2)C(=O)N[C@@H](Cc2ccc(O)cc2)C(=O)N[C@@H](C)C(=O)N[C@@H](CCCNC(=N)N)C(=O)N[C@@H](CCCNC(=N)N)C(N)=O)NC(=O)[C@H](CC(N)=O)NC(=O)[C@H](Cc2ccccc2)NC(=O)[C@H](CCC(=O)O)NC(=O)[C@H](CC(=O)O)NC(=O)CNC(=O)[C@H]([C@@H](C)CC)NC1=O)[C@@H](C)CC [SP810]
pIC50 (BCL-XL): 8.04 | pEC50 (Raji Cell): < 4.52

CC[C@H](C)[C@H](NC(C)=O)C(=O)N[C@@H](Cc1c[nH]c2ccccc12)C(=O)N[C@H](C(=O)N[C@@H](C)C(=O)N[C@@H](CCC(N)=O)C(=O)N[C@@H](C)C(=O)N[C@@H](CC(C)C)C(=O)N[C@@H](CCCNC(=N)N)C(=O)N[C@]1(C)CCCCCCC=CCCC[C@@](C)(C(=O)N[C@@H](Cc2ccc(O)cc2)C(=O)N[C@@H](Cc2ccc(O)cc2)C(=O)N[C@@H](C)C(N)=O)NC(=O)[C@H](CC(N)=O)NC(=O)[C@H](Cc2ccccc2)NC(=O)[C@H](C)NC(=O)[C@H](CC(=O)O)NC(=O)CNC(=O)[C@H]([C@@H](C)CC)NC1=O)[C@@H](C)CC [SP815] (Ac-IWIAQALR[R8]IGDAFN[S5]YYA-NH2; staple 9-16)
pIC50 (MCL-1): 8.08 | pIC50 (BCL-XL): 7.65 | pEC50 (Raji Cell): 5.18

CC[C@H](C)[C@H](NC(C)=O)C(=O)N[C@@H](Cc1c[nH]c2ccccc12)C(=O)N[C@H](C(=O)N[C@@H](C)C(=O)N[C@@H](CCC(N)=O)C(=O)N[C@@H](C)C(=O)N[C@@H](CC(C)C)C(=O)N[C@@H](CCCNC(=N)N)C(=O)N[C@]1(C)CCCCCCC=CCCC[C@@](C)(C(=O)N[C@@H](Cc2ccc(O)cc2)C(=O)N[C@@H](Cc2ccc(F)cc2)C(=O)N[C@@H](C)C(N)=O)NC(=O)[C@H](CC(N)=O)NC(=O)[C@H](Cc2ccccc2)NC(=O)[C@H](C)NC(=O)[C@H](CC(=O)O)NC(=O)CNC(=O)[C@H](CCC(C)C)NC1=O)[C@@H](C)CC [SP962] (Ac-IWIAQALR[R8][hLeu]GDAFN[S5]Y[Phe(4-F)]A-NH2; staple 9-16)
pIC50 (MCL-1): 7.57 | pIC50 (BCL-XL): 7.89 | pEC50 (Raji Cell): 6.15
